The values that follow are results of earlier work, collected in patent EP0972007B1, “DETERGENT COMPOSITIONS” (UNILEVER PLC, priority 1997, dated 1998).

For the series the following is noted: for Water Solubility (g/100g): grams of solid to form a saturated solution in 100 grams of water at 20°C.

`O=BO[O-].[Na+]` [Sodium perborate anhydrous]: the “Water Solubility (g/100g)” value was 3.7 g/100g. Take `O=P(O)(O)OP(=O)(O)OP(=O)(O)O` [Sodium tripolyphosphate anhydrous]: the “Water Solubility (g/100g)” value was 15 g/100g.

Regarding `NC(N)=O` [Urea], the “Water Solubility (g/100g)” value is more than 100 g/100g. Moreover, the solubility in water result (at 20°C) was “exceeding 100 gms per 100ml water”.
